Data as given in ChEMBL document CHEMBL5518181, “Studies of antibacterial activity (in vitro and in vivo) and mode of action for des-acyl tridecaptins (DATs)” (Eur J Med Chem, 2024).
≈ marks a conversion by molar mass, not a printed value. Calls of active or inactive are those of the source. The rule behind the calls is not given here.

Tests used:
[1] = tested on: Escherichia coli; test: Antibacterial activity against wild-type Escherichia coli ATCC 25922 assessed as inhibition of bacterial growth incubated for 18 hrs; assay type: functional; conditions: read-out: MIC100
[2] = tested on: Klebsiella pneumoniae; test: Antibacterial activity against wild-type Klebsiella pneumoniae ATCC 13883 assessed as inhibition of bacterial growth incubated for 18 hrs; assay type: functional; conditions: read-out: MIC100
[3] = Lipophilicity, logD of compound at pH 7.4; assay type: physicochemical; conditions: buffer
[4] = Aqueous solubility of compound at pH 4.6; assay type: physicochemical
[5] = Aqueous solubility of compound at pH 7.4; assay type: physicochemical
[6] = tested on: Escherichia coli; test: Antibacterial activity against Escherichia coli ATCC BAA-2469 expressing NDM-1 assessed as inhibition of bacterial growth incubated for 18 hrs; assay type: functional; conditions: read-out: MIC100
[7] = tested on: Escherichia coli; test: Antibacterial activity against colistin resistant Escherichia coli NCTC 13846 harboring mcr-1 gene assessed as inhibition of bacterial growth incubated for 18 hrs; assay type: functional; conditions: read-out: MIC100
[8] = tested on: Escherichia coli; test: Antibacterial activity against Escherichia coli Swiss 7 harboring mcr-1 gene assessed as inhibition of bacterial growth incubated for 18 hrs; assay type: functional; conditions: read-out: MIC100
[9] = tested on: Escherichia coli; test: Antibacterial activity against Escherichia coli Swiss 9 harboring mcr-1 gene assessed as inhibition of bacterial growth incubated for 18 hrs; assay type: functional; conditions: read-out: MIC100
[10] = tested on: Morganella morganii; test: Antibacterial activity against Morganella morganii ATCC 25830 assessed as inhibition of bacterial growth incubated for 18 hrs; assay type: functional; conditions: read-out: MIC100
[11] = tested on: Proteus mirabilis; test: Antibacterial activity against Proteus mirabilis ATCC 7002 assessed as inhibition of bacterial growth incubated for 18 hrs; assay type: functional; conditions: read-out: MIC100
[12] = tested on: Pseudomonas aeruginosa; test: Antibacterial activity against efflux-deficient Pseudomonas aeruginosa PAO750 assessed as inhibition of bacterial growth incubated for 18 hrs; assay type: functional; conditions: read-out: MIC100
[13] = tested on: Staphylococcus aureus; test: Antibacterial activity against wild type Staphylococcus aureus USA300 assessed as inhibition of bacterial growth incubated for 18 hrs; assay type: functional; conditions: read-out: MIC100
[14] = Drug uptake in Escherichia coli ATCC 25922 assessed as fold increase in cellular drug concentration at 10 uM incubated for 10 mins by LC-MS/MS analysis; assay type: ADME
[15] = Drug localization in membrane fraction of Escherichia coli ATCC 25922 at 10 uM incubated for 10 mins by LC-MS/MS analysis; assay type: ADME, cell membranes
[16] = Drug uptake in Proteus mirabilis ATCC 7002 whole cells at 10 uM incubated for 10 mins by LC-MS/MS analysis; assay type: ADME
[17] = Drug uptake in Pseudomonas aeruginosa PAO1 whole cells assessed as log10 increase in drug accumulation at 10 uM incubated for 10 mins by LC-MS/MS analysis relative to H-(D-Val)-(D-Dab)-Gly-(D-Ser)-(D-Trp)-Ser-Dab-(D-Dab)-Phe-Glu-Val-(D-allo-Ile)-Ala-OH; assay type: ADME
[18] = Drug uptake in Acinetobacter baumannii ATCC 19606 whole cells assessed as log10 increase in drug accumulation at 10 uM incubated for 10 mins by LC-MS/MS analysis relative to H-(D-Val)-(D-Dab)-Gly-(D-Ser)-(D-Trp)-Ser-Dab-(D-Dab)-Phe-Glu-Val-(D-allo-Ile)-Ala-OH; assay type: ADME
[19] = tested on: Cell membrane; test: Induction of membrane permeabilization in Escherichia coli ATCC 25922 at 4 to 10 ug/ml measured after 30 mins by Sytox Green labelling based microscopic analysis; assay type: cell membranes; conditions: dose 4-10 µg/ml
[20] = tested on: Cell membrane; test: Induction of membrane permeabilization in Klebsiella pneumoniae ATCC 13883 at 4 to 10 ug/ml measured after 30 mins by Sytox Green labelling based microscopic analysis; assay type: cell membranes; conditions: dose 4-10 µg/ml

CCCCCCCC(=O)N[C@@H](C(=O)N[C@H](CCN)C(=O)NCC(=O)N[C@H](CO)C(=O)N[C@H](Cc1c[nH]c2ccccc12)C(=O)N[C@@H](CO)C(=O)N[C@@H](CCN)C(=O)N[C@H](CCN)C(=O)N[C@@H](Cc1ccccc1)C(=O)N[C@@H](CCC(=O)O)C(=O)N[C@H](C(=O)N[C@@H](C(=O)N[C@@H](C)C(=O)O)[C@@H](C)CC)C(C)C)C(C)C
MIC [1]: 2 µg/mL (≈ 1.32 µM) | MIC [2]: 4 µg/mL (≈ 2.63 µM) | logD [3]: 2.24 | solubility [4]: 88 mg/mL (≈ 57900 µM) | solubility [5]: 30 mg/mL (≈ 19700 µM) | MIC [6]: 1 µg/mL (≈ 0.658 µM) | MIC [7]: 1 µg/mL (≈ 0.658 µM) | MIC [8]: 1 µg/mL (≈ 0.658 µM) | MIC [9]: 0.5 µg/mL (≈ 0.329 µM) | MIC [10]: > 32 µg/mL | MIC [11]: 32 µg/mL (≈ 21 µM) | MIC [12]: > 32 µg/mL | MIC [13]: 32 µg/mL (≈ 21 µM) | fold change (FC) [14]: 30 | Drug uptake [15]: Active | Drug uptake [16]: Active | log(activity) [17]: 2 | log(activity) [18]: 2 | Activity [19]: Active | Activity [20]: Active
